{
  "source": "patent US5214038A",
  "about": "“1-(pyrido[3,4-b]-1,4-oxazinyl-4-yl)-1H-indoles and intermediates for the preparation thereof” (priority 1991, dated 1993)",
  "key": {"[1]": {"target": "T1, Brain AChE (acetylcholinesterase, rat striatum) (Rattus norvegicus, UniProt P37136)", "T1 construct": "corpora striata dissected free, weighed and homogenized in 19 volumes; from tissue; host or cells: corpora striata of male Wistar rats, crude homogenate", "T1 sequence (P37136 32-614)": "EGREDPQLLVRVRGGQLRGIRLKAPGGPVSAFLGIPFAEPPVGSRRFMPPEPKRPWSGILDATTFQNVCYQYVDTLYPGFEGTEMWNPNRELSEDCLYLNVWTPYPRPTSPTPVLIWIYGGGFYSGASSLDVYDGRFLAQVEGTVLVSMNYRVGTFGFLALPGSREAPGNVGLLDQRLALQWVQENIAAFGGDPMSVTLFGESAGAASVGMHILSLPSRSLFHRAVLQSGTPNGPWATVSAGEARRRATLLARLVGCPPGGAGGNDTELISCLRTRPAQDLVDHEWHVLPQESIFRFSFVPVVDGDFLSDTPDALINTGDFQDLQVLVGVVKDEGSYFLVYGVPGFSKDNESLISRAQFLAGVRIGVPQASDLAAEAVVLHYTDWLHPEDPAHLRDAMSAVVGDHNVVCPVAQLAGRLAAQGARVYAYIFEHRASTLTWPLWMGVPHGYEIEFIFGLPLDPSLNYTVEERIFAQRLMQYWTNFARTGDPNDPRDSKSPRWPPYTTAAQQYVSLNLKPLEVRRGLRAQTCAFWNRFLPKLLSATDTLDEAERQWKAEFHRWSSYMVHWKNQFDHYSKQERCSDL", "test": "biochemical", "details": "rat striatum homogenate; 5 mM acetylthiocholine; pH 7.2; 10 min preincubation at 37° C.; read-out: Inhibitory Concentration, Brain AChE", "source_text": "Cholinesterases are found throughout the body, both in the brain and in serum. However, only brain acetylcholinesterase (AChE) distribution is correlated with central cholinergic innervation. […] We have determined in vitro inhibition of acetylcholinesterase activity in rat striatum according to the method described below.\nIn Vitro Inhibition of Acetylcholinesterase Activity in Rat Striatum\nThe method described below was used in this invention for assaying anticholinesterase activity. This is a modification of the method of Ellman et al., Biochem. Pharmacol. 7, 88 (1961).\n1. 0.05M Phosphate buffer, pH 7.2\n(a) 6.85 g NaH2 PO4 .cndot.H2 O/100 ml distilled H2 O\n(c) add (a) to (b) until pH reaches 7.2\n4. A 2 mM stock solution of the test drug is made up in a suitable solvent and q.s. to volume with 0.5 mM DTNB (reagent 3). Drugs are serially diluted (1:10) such that the final concentration (in cuvette) is 10^-4 M and screened for activity. If active, IC50 values are determined from the inhibitory activity of subsequent concentrations.\nEnzyme activity is measured with the Beckman DU-50 spectrophotometer. This method can be used for IC50 determinations and for measuring kinetic constants.\nThis program also calculates the rate of absorbance change for each cuvette.\nSubstrate concentration is 10 mM diluted 1:2 in assay yielding final concentration of 5 mM."}, "[2]": {"system": "Scopolamine Induced Memory Deficit", "type": "in vivo, mice", "procedure": "In this assay mice are tested for their ability to remember an unpleasant stimulus for a period of 24 hours. A mouse is placed in a chamber that contains a dark compartment; a strong incandescent light drives it to the dark compartment, where an electric shock is administered through metal plates on the floor. The animal is removed from the testing apparatus and tested again, 24 hours later, for the ability to remember the electric shock.\nIf scopolamine, an anticholinergic that is known to cause memory impairment, is administered before an animal's initial exposure to the test chamber, the animal re-enters the dark compartment shortly after being placed in the test chamber 24 hours later. This effect of scopolamine is blocked by an active test compound, resulting in a greater interval before-re-entry into the dark compartment.\nThe results for an active compound are expressed as the percent of a group of animals in which the effect of scopolamine is blocked, as manifested by an increased interval between being placed in the test chamber and re-entering the dark compartment.\nResults of this assay for some of the compounds of this invention and those for tacrine and pilocarpine (reference compounds) are presented in Table 2."}, "norepinephrine uptake": {"system": "norepinephrine uptake", "test": "3H-Norepinephrine Uptake in Rat Whole Brain Synaptosomes", "type": "biochemical", "details": "50 nM 3H-NE, 37° C., 5 minutes, read-out: IC50 (3H-norepinephrine uptake inhibition)", "procedure": "^3 H-Norepinephrine Uptake in Rat Whole Brain Synaptosomes\nThis assay is used as a biochemical screen for compounds that enhance adrenergic mechanism by blocking norepinephrine uptake.\nA. Animals: Male CR Wistar rats (100-125 g).\n1. Krebs-Henseleit Bicarbonate Buffer, pH 7.4 (KHBB). Make a 1 liter batch, containing the following salts.\n2. 0.32M Sucrose: 21.9 g of sucrose, Q.S. to 200 ml.\n3. A 0.1 mM stock solution of L(-)-Norepinephrine bitartrate is made up in 0.01N HCl. This is used to dilute the specific activity of radiolabeled NE.\n4. Levo-[Ring-2,5,6-^3 H]-Norepinephrine (40-50 Ci/mmol) is obtained from New England Nuclear. The final desired concentration of ^3 H-NE in the assay is 50 nM. The dilution factor is 0.8; therefore the KHBB is made up to contain 62.5 nM [^3 H]-NE. Add to 100 ml of KHBB:\n5. For most assays, a 1 mM stock solution of the test compound is made up in suitable solvent and serially diluted such that the final concentration in the assay ranges from 2×10^-8 to 2×10^-5 M. Seven concentrations are used for each assay. Higher or lower concentrations may be used depending on the potency of the test compound.\nMale Wistar rats are decapitated and brains rapidly removed. Either whole brain minus cerebella or hypothalamus is weighed and homogenized in 9 volumes of ice-cold 0.32M sucrose using a Potter-Elvejhem homogenizer. Homogenization should be done with 4-5 up and down strokes at medium speeds to minimize synaptosome lysis. The homogenate is centrifuged at 1000 g for 10 min at 0°-4° C. The supernatant (S1) is decanted and is used for uptake experiments.\n800 μl: KHBB containing [^3 H]-NE\n20 μl: Vehicle or appropriate drug concentration\n200 μl: Tissue suspension\nTubes are incubated at 37° C. under a 95% O2 /5% CO2 atmosphere for 5 minutes. For each assay, 3 tubes are incubated with 20 μl of vehicle at 0° C. in an ice bath. After incubation all tubes are immediately centrifuged at 4000 g for 10 minutes. […] The tubes are vigorously vortexed, decanted into scintillation vials, and counted in 10 ml of Liquiscint scintillation counting cocktail. […]"}},
  "note": "Where two headings read alike, the source gives them in different places.",
  "data": [
    {"molecule": "CNC(=O)Oc1ccc2c(ccn2N2CCOc3cnccc32)c1", "note": "[1-(Pyrido-[3,4-b]-1,4-oxazin-4-yl)-1H-indol'-5-yl methylcarbamate]", "values": [
      {"measurement": "IC50", "setting": "[1]", "result": 0.054, "unit": "µM"},
      {"measurement": "% of Animals with Scopolamine Induced Memory Deficit Reversal", "setting": "[2]; mice, 0.01 mg/kg of body weight, s.c., retest 24 hours", "result": 27, "unit": "%"},
      {"measurement": "% of Animals with Scopolamine Induced Memory Deficit Reversal", "setting": "[2]; mice, 0.03 mg/kg of body weight, s.c., retest 24 hours", "result": 20, "unit": "%"},
      {"measurement": "% of Animals with Scopolamine Induced Memory Deficit Reversal", "setting": "[2]; mice, 0.10 mg/kg of body weight, s.c., retest 24 hours", "result": 33, "unit": "%"}
    ]},
    {"molecule": "Cc1cn(N2CCOc3cnccc32)c2ccccc12", "note": "[4-(3-Methyl-1H-indol-1-yl)-pyrido[3,4-b]-1,4-oxazine]", "values": [
      {"measurement": "IC50", "setting": "norepinephrine uptake", "result": 6, "unit": "µM"}
    ]},
    {"molecule": "CN(C)CCC=C1c2ccccc2CCc2ccccc21", "note": "[Amitriptyline]", "values": [
      {"measurement": "IC50", "setting": "norepinephrine uptake", "result": 7.7, "unit": "µM"}
    ]},
    {"molecule": "CNCCC=C1c2ccccc2CCc2ccccc21", "note": "[Nortriptyline]", "values": [
      {"measurement": "IC50", "setting": "norepinephrine uptake", "result": 4, "unit": "µM"}
    ]},
    {"molecule": "CC[C@@H]1C(=O)OC[C@@H]1Cc1cncn1C", "note": "[Pilocarpine, reference compound]", "values": [
      {"measurement": "% of Animals with Scopolamine Induced Memory Deficit Reversal", "setting": "[2]; mice, 5.0 mg/kg of body weight, s.c., retest 24 hours", "result": 13, "unit": "%"}
    ]},
    {"molecule": "Nc1c2c(nc3ccccc13)CCCC2", "note": "[Tacrine, reference compound]", "values": [
      {"measurement": "% of Animals with Scopolamine Induced Memory Deficit Reversal", "setting": "[2]; mouse, in vivo, sc, 0.63 mg/kg", "result": 13, "unit": "%"}
    ]}
  ]
}
